# Test results reported in PMC5218480 (PLoS ONE, 2017).
# Tested on: MV-4-11 cells
# Test: Gene expression microarray analysis (Affymetrix PrimeView) and GSEA
# Type: cell-based, human
# Set-up: RFU PODN (11730768_x_at) / Fold change /veh PODN (11730768_x_at) / RFU LINC00158 (11744669_a_at) / Fold change /veh LINC00158 (11744669_a_at) / RFU DUSP10 (11751237_a_at) / Fold change /veh DUSP10 (11751237_a_at) / RFU ID3 (11757404_x_at) / Fold change /veh ID3 (11757404_x_at) / RFU PLEKHG5 (11737974_s_at) / Fold change /veh PLEKHG5 (11737974_s_at) / RFU LRRC4B (11730491_at) / Fold change /veh LRRC4B (11730491_at) / RFU GIMAP4 (11747438_a_at) / Fold change /veh GIMAP4 (11747438_a_at) / RFU KRT8 (11758183_x_at) / Fold change /veh KRT8 (11758183_x_at) / RFU CNN1 (11734310_a_at) / Fold change /veh CNN1 (11734310_a_at) / RFU VPS37D (11726825_at) / Fold change /veh VPS37D (11726825_at) / RFU C10orf10 (11716522_x_at) / Fold change /veh C10orf10 (11716522_x_at) / RFU KIR2DL2 /// KIR2DL4 /// KIR2DL5A /// KIR2DL5B /// KIR2DS1 /// KIR2DS2 /// KIR2DS3 /// KIR2DS4 /// KIR3DL3 /// KIR3DL3 /// KIR3DS1 (11738374_at) / Fold change /veh KIR2DL2 /// KIR2DL4 /// KIR2DL5A /// KIR2DL5B /// KIR2DS1 /// KIR2DS2 /// KIR2DS3 /// KIR2DS4 /// KIR3DL3 /// KIR3DL3 /// KIR3DS1 (11738374_at) / RFU C1QL1 (11718748_at) / Fold change /veh C1QL1 (11718748_at) / RFU TMPRSS4 (11747572_a_at) / Fold change /veh TMPRSS4 (11747572_a_at) / RFU HAMP (11756126_x_at) / Fold change /veh HAMP (11756126_x_at) / RFU RNFT2 (11725882_a_at) / Fold change /veh RNFT2 (11725882_a_at) / RFU NR4A2 (11747474_a_at) / Fold change /veh NR4A2 (11747474_a_at) / RFU ABCC12 (11746883_a_at) / Fold change /veh ABCC12 (11746883_a_at) / RFU TMEM136 (11760407_x_at) / Fold change /veh TMEM136 (11760407_x_at) / RFU CLDN22 /// WWC2 (11732394_at) / Fold change /veh CLDN22 /// WWC2 (11732394_at) / RFU HLA-DPB1 (11760878_x_at) / Fold change /veh HLA-DPB1 (11760878_x_at) / RFU SPINT1 (11716480_a_at) / Fold change /veh SPINT1 (11716480_a_at) / RFU GAP43 (11754022_s_at) / Fold change /veh GAP43 (11754022_s_at) / RFU A4GNT (11735810_at) / Fold change /veh A4GNT (11735810_at) / RFU PRB3 (11715151_x_at) / Fold change /veh PRB3 (11715151_x_at) / RFU TUBB4B (11761932_at) / Fold change /veh TUBB4B (11761932_at) / RFU CAPN14 (11732068_a_at) / Fold change /veh CAPN14 (11732068_a_at) / RFU TMCC2 (11721928_a_at) / Fold change /veh TMCC2 (11721928_a_at) / RFU IRGQ (11745062_a_at) / Fold change /veh IRGQ (11745062_a_at) / RFU FAM174B (11720279_a_at) / Fold change /veh FAM174B (11720279_a_at) / RFU TMPRSS4 (11748680_a_at) / Fold change /veh TMPRSS4 (11748680_a_at) / RFU FAM212B (11763350_a_at) / Fold change /veh FAM212B (11763350_a_at) / RFU PLEKHG5 (11743358_a_at) / Fold change /veh PLEKHG5 (11743358_a_at) / RFU ZSCAN30 (11745921_a_at) / Fold change /veh ZSCAN30 (11745921_a_at) / RFU CMKLR1 (11741424_a_at) / Fold change /veh CMKLR1 (11741424_a_at) / RFU LOC101060620 /// MAPK8IP1 (11723275_at) / Fold change /veh LOC101060620 /// MAPK8IP1 (11723275_at) / RFU SPTSSB (11747773_x_at) / Fold change /veh SPTSSB (11747773_x_at) / RFU PRSS12 (11739890_at) / Fold change /veh PRSS12 (11739890_at) / RFU BIN1 (11741810_x_at) / Fold change /veh BIN1 (11741810_x_at) / RFU WNT11 (11732464_a_at) / Fold change /veh WNT11 (11732464_a_at) / RFU C10orf10 (11716521_a_at) / Fold change /veh C10orf10 (11716521_a_at) / RFU C5orf56 (11738089_at) / Fold change /veh C5orf56 (11738089_at) / RFU CYB561 (11721691_x_at) / Fold change /veh CYB561 (11721691_x_at) / RFU ANKRD19P (11752326_a_at) / Fold change /veh ANKRD19P (11752326_a_at) / RFU OR2T12 /// OR2T33 /// OR2T8 (11738714_s_at) / Fold change /veh OR2T12 /// OR2T33 /// OR2T8 (11738714_s_at) / RFU VCAN (11748164_a_at) / Fold change /veh VCAN (11748164_a_at) / RFU JSRP1 (11732532_at) / Fold change /veh JSRP1 (11732532_at) / RFU KRTAP10-11 (11738290_x_at) / Fold change /veh KRTAP10-11 (11738290_x_at) / RFU MYO3A (11730013_a_at) / Fold change /veh MYO3A (11730013_a_at) / RFU EBF3 (11725865_a_at) / Fold change /veh EBF3 (11725865_a_at) / RFU CAMK2N1 (11719241_x_at) / Fold change /veh CAMK2N1 (11719241_x_at) / RFU C5orf56 (11738088_a_at) / Fold change /veh C5orf56 (11738088_a_at) / RFU OLFML3 (11715873_a_at) / Fold change /veh OLFML3 (11715873_a_at) / RFU LOC100653217 /// NTM (11731650_a_at) / Fold change /veh LOC100653217 /// NTM (11731650_a_at) / RFU MAPK11 (11762145_a_at) / Fold change /veh MAPK11 (11762145_a_at) / RFU FIZ1 (11724087_x_at) / Fold change /veh FIZ1 (11724087_x_at) / RFU OASL (11726364_x_at) / Fold change /veh OASL (11726364_x_at) / RFU SOX15 (11748057_x_at) / Fold change /veh SOX15 (11748057_x_at) / RFU CD79A (11719716_a_at) / Fold change /veh CD79A (11719716_a_at) / RFU HIST1H1D (11736915_at) / Fold change /veh HIST1H1D (11736915_at) / RFU CASKIN2 (11723855_a_at) / Fold change /veh CASKIN2 (11723855_a_at) / RFU LOC730098 (11760151_x_at) / Fold change /veh LOC730098 (11760151_x_at) / RFU OR4N2 (11742367_at) / Fold change /veh OR4N2 (11742367_at) / RFU PRRT2 (11749266_a_at) / Fold change /veh PRRT2 (11749266_a_at) / RFU SNX32 (11753110_a_at) / Fold change /veh SNX32 (11753110_a_at) / RFU CDHR5 (11726645_a_at) / Fold change /veh CDHR5 (11726645_a_at) / RFU RCAN1 (11760418_a_at) / Fold change /veh RCAN1 (11760418_a_at) / RFU FAM167A (11723789_a_at) / Fold change /veh FAM167A (11723789_a_at) / RFU FAM26E (11764081_at) / Fold change /veh FAM26E (11764081_at) / RFU ISYNA1 (11749810_s_at) / Fold change /veh ISYNA1 (11749810_s_at) / RFU ACY1 (11761880_at) / Fold change /veh ACY1 (11761880_at) / RFU 11764098_at / Fold change /veh 11764098_at / RFU SAMD14 (11745864_x_at) / Fold change /veh SAMD14 (11745864_x_at) / RFU NPB (11741838_a_at) / Fold change /veh NPB (11741838_a_at) / RFU TMPRSS6 (11731388_a_at) / Fold change /veh TMPRSS6 (11731388_a_at) / RFU KRTAP10-2 (11738614_at) / Fold change /veh KRTAP10-2 (11738614_at) / RFU ARHGAP8 /// PRR5-ARHGAP8 (11727945_x_at) / Fold change /veh ARHGAP8 /// PRR5-ARHGAP8 (11727945_x_at) / RFU KRTAP5-7 /// NADSYN1 (11734609_at) / Fold change /veh KRTAP5-7 /// NADSYN1 (11734609_at) / RFU RASL12 (11751679_a_at) / Fold change /veh RASL12 (11751679_a_at) / RFU CDKN2B (11736163_a_at) / Fold change /veh CDKN2B (11736163_a_at) / RFU PRF1 (11729649_at) / Fold change /veh PRF1 (11729649_at) / RFU, ZNF638 /// ZNF638-IT1 / Fold change vs veh, ZNF638 /// ZNF638-IT1 / RFU, PANK3 / Fold change vs veh, PANK3 / RFU, SH3YL1 / Fold change vs veh, SH3YL1 / RFU, ZEB2 / Fold change vs veh, ZEB2 / RFU, NRIP1 / Fold change vs veh, NRIP1 / RFU, PTTG1IP / Fold change vs veh, PTTG1IP / RFU, CAPN2 / Fold change vs veh, CAPN2 / RFU, MED14 / Fold change vs veh, MED14 / RFU, SNORA58 / Fold change vs veh, SNORA58 / RFU, C1orf63 / Fold change vs veh, C1orf63 / RFU, LRRFIP1 / Fold change vs veh, LRRFIP1 / RFU, NDUFAF7 / Fold change vs veh, NDUFAF7 / RFU, SLC12A2 / Fold change vs veh, SLC12A2 / RFU, IBTK / Fold change vs veh, IBTK / RFU, ESF1 / Fold change vs veh, ESF1 / Fold change vs veh, TMEM50B / RFU, TAOK1 / Fold change vs veh, TAOK1 / RFU, ACBD3 / Fold change vs veh, ACBD3 / RFU, TMA16 / Fold change vs veh, TMA16 / RFU, RWDD3 / Fold change vs veh, RWDD3 / RFU, BCAT1 / Fold change vs veh, BCAT1 / RFU, EDEM3 / Fold change vs veh, EDEM3 / RFU, TMEM33 / Fold change vs veh, TMEM33 / RFU, WDR75 / Fold change vs veh, WDR75 / RFU, AHCTF1 / Fold change vs veh, AHCTF1 / RFU, TFRC / Fold change vs veh, TFRC / RFU, ZDHHC17 / Fold change vs veh, ZDHHC17 / RFU, NOM1 / Fold change vs veh, NOM1 / RFU, ARL8B / Fold change vs veh, ARL8B / RFU, ZBTB11 / Fold change vs veh, ZBTB11 / RFU, TAMM41 / Fold change vs veh, TAMM41 / RFU, KIAA1704 /// LOC100996395 / Fold change vs veh, KIAA1704 /// LOC100996395 / RFU, ING1 / Fold change vs veh, ING1 / RFU, TRMT61B / Fold change vs veh, TRMT61B / RFU, FUBP3 / Fold change vs veh, FUBP3 / RFU, TP53 / Fold change vs veh, TP53 / RFU, TNKS2 / Fold change vs veh, TNKS2 / RFU, ZFP14 / Fold change vs veh, ZFP14 / RFU, ACTR2 / Fold change vs veh, ACTR2 / RFU, PPP3R1 / Fold change vs veh, PPP3R1 / RFU, PIK3R1 / Fold change vs veh, PIK3R1 / RFU, HNRNPA1 / Fold change vs veh, HNRNPA1 / RFU, RNF170 / Fold change vs veh, RNF170 / RFU, ZNF28 / Fold change vs veh, ZNF28 / RFU, RNGTT / Fold change vs veh, RNGTT / RFU, OGT / Fold change vs veh, OGT / RFU, BRD1 / Fold change vs veh, BRD1 / RFU, MARS / Fold change vs veh, MARS / RFU, ZNF655 / Fold change vs veh, ZNF655 / RFU, FAHD1 / Fold change vs veh, FAHD1 / RFU, BDP1 / Fold change vs veh, BDP1 / RFU, LRRCC1 / Fold change vs veh, LRRCC1 / RFU, ARID1A / Fold change vs veh, ARID1A / RFU, ZNF146 / Fold change vs veh, ZNF146 / RFU, ZNF330 / Fold change vs veh, ZNF330 / RFU, GPN3 / Fold change vs veh, GPN3 / RFU, C9orf123 / Fold change vs veh, C9orf123 / RFU, N4BP2L2 / Fold change vs veh, N4BP2L2 / RFU, ARFIP1 / Fold change vs veh, ARFIP1 / RFU, FAM179B / Fold change vs veh, FAM179B / RFU, BCL10 / Fold change vs veh, BCL10 / RFU, UHRF1BP1L / Fold change vs veh, UHRF1BP1L / RFU, BET1 / Fold change vs veh, BET1 / RFU, CNOT2 / Fold change vs veh, CNOT2 / RFU, ZNF268 / Fold change vs veh, ZNF268 / Fold change vs veh, ZNF507 / RFU, DGCR2 / Fold change vs veh, DGCR2 / RFU, WDSUB1 / Fold change vs veh, WDSUB1 / Fold change vs veh, HSP90B1 /// MIR3652 / RFU, ADSS / Fold change vs veh, ADSS / RFU, GK / Fold change vs veh, GK / RFU, ZNF148 / Fold change vs veh, ZNF148 / RFU, TAF9 / Fold change vs veh, TAF9 / RFU, SLC1A5 / Fold change vs veh, SLC1A5 / RFU, SLMO2 / Fold change vs veh, SLMO2 / RFU, ABCC4 / Fold change vs veh, ABCC4 / RFU, LOC101060439 /// RAP1B / Fold change vs veh, LOC101060439 /// RAP1B / RFU, RFX7 / Fold change vs veh, RFX7 / RFU, GTPBP10 / Fold change vs veh, GTPBP10 / RFU, CNEP1R1 / Fold change vs veh, CNEP1R1 / RFU, BIVM-ERCC5 /// ERCC5 / Fold change vs veh, BIVM-ERCC5 /// ERCC5 / RFU, ILF3 / Fold change vs veh, ILF3 / RFU 11762660_at / Fold change /veh 11762660_at / RFU VCAN (11757783_s_at) / Fold change /veh VCAN (11757783_s_at) / RFU DDX43 (11728927_at) / Fold change /veh DDX43 (11728927_at) / RFU KRT8 (11758188_x_at) / Fold change /veh KRT8 (11758188_x_at) / RFU NKD1 (11759106_at) / Fold change /veh NKD1 (11759106_at) / RFU SRD5A1 (11742802_a_at) / Fold change /veh SRD5A1 (11742802_a_at) / RFU TPSAB1 /// TPSB2 (11721975_s_at) / Fold change /veh TPSAB1 /// TPSB2 (11721975_s_at) / RFU GSTM3 (11746129_a_at) / Fold change /veh GSTM3 (11746129_a_at) / RFU IL23R (11737362_x_at) / Fold change /veh IL23R (11737362_x_at) / RFU TMEM51 (11727254_a_at) / Fold change /veh TMEM51 (11727254_a_at) / RFU PIWIL2 (11732686_x_at) / Fold change /veh PIWIL2 (11732686_x_at) / RFU ORM1 (11744905_x_at) / Fold change /veh ORM1 (11744905_x_at) / RFU CCDC152 (11743942_at) / Fold change /veh CCDC152 (11743942_at) / RFU ECM1 (11717891_a_at) / Fold change /veh ECM1 (11717891_a_at) / RFU IL23R (11748794_a_at) / Fold change /veh IL23R (11748794_a_at) / RFU TNFAIP8L3 (11732012_x_at) / Fold change /veh TNFAIP8L3 (11732012_x_at) / RFU MBOAT4 (11741988_at) / Fold change /veh MBOAT4 (11741988_at) / RFU 11764193_at / Fold change /veh 11764193_at / RFU TMEM53 (11763286_at) / Fold change /veh TMEM53 (11763286_at) / RFU MAGEB2 (11727129_at) / Fold change /veh MAGEB2 (11727129_at) / RFU TMEM200A (11744735_a_at) / Fold change /veh TMEM200A (11744735_a_at) / RFU CCDC152 (11751479_a_at) / Fold change /veh CCDC152 (11751479_a_at) / RFU FAM211A (11726209_a_at) / Fold change /veh FAM211A (11726209_a_at) / RFU RGS16 (11746705_a_at) / Fold change /veh RGS16 (11746705_a_at) / RFU VCAN (11755009_s_at) / Fold change /veh VCAN (11755009_s_at) / RFU RHOB (11743442_s_at) / Fold change /veh RHOB (11743442_s_at) / RFU RGS16 (11720943_a_at) / Fold change /veh RGS16 (11720943_a_at) / RFU RGS16 (11720944_at) / Fold change /veh RGS16 (11720944_at) / RFU, VPS4B / Fold change vs veh, VPS4B / RFU, CREB1 / Fold change vs veh, CREB1 / RFU, DNAJC13 / Fold change vs veh, DNAJC13 / RFU, GNAQ / Fold change vs veh, GNAQ / RFU, CDK5R1 / Fold change vs veh, CDK5R1 / RFU, ZRANB3 / Fold change vs veh, ZRANB3 / RFU, CUL4A / Fold change vs veh, CUL4A / RFU, CCNY / Fold change vs veh, CCNY / RFU, UFL1 / Fold change vs veh, UFL1 / RFU, COG3 / Fold change vs veh, COG3 / RFU, DIAPH2 / Fold change vs veh, DIAPH2 / RFU, SKA2 / Fold change vs veh, SKA2 / RFU, AFF3 / Fold change vs veh, AFF3 / RFU, LMF1 / Fold change vs veh, LMF1 / RFU, IPO11 / Fold change vs veh, IPO11 / RFU, DFFB / Fold change vs veh, DFFB / RFU, FOXP1 / Fold change vs veh, FOXP1 / RFU, CARD8 / Fold change vs veh, CARD8 / RFU, STRN3 / Fold change vs veh, STRN3 / RFU, ADK / Fold change vs veh, ADK / RFU, RASSF2 / Fold change vs veh, RASSF2 / RFU, WIPF1 / Fold change vs veh, WIPF1 / RFU, LARP1B / Fold change vs veh, LARP1B / RFU, RASA1 / Fold change vs veh, RASA1 / RFU, RB1 / Fold change vs veh, RB1 / RFU, PPFIA1 / Fold change vs veh, PPFIA1 / RFU, MAT2A / Fold change vs veh, MAT2A / RFU, CCT5 / Fold change vs veh, CCT5 / RFU, WDR92 / Fold change vs veh, WDR92 / RFU, CUX1 / Fold change vs veh, CUX1 / RFU, TTC7A / Fold change vs veh, TTC7A / RFU, TMEM135 / Fold change vs veh, TMEM135 / RFU, DEPTOR / Fold change vs veh, DEPTOR / RFU, CPM / Fold change vs veh, CPM / RFU, DNAJB6 / Fold change vs veh, DNAJB6 / RFU, CACNA2D3 / Fold change vs veh, CACNA2D3 / RFU, DTX4 / Fold change vs veh, DTX4 / RFU, TFCP2 / Fold change vs veh, TFCP2 / RFU, GMCL1 /// GMCL1P1 / Fold change vs veh, GMCL1 /// GMCL1P1 / RFU, AEBP2 / Fold change vs veh, AEBP2 / RFU, SNHG1 /// SNORD22 /// SNORD25 /// SNORD26 /// SNORD27 /// SNORD28 /// SNORD29 /// SNORD31 / Fold change vs veh, SNHG1 /// SNORD22 /// SNORD25 /// SNORD26 /// SNORD27 /// SNORD28 /// SNORD29 /// SNORD31 / Fold change (Aza/veh), C12orf56 (ProbeSet 11735607_a_at) / Fold change (ACY-1035/veh), C12orf56 (ProbeSet 11735607_a_at) / Fold change (Aza/veh), FGFR1OP (ProbeSet 11751329_s_at) / Fold change (ACY-1035/veh), FGFR1OP (ProbeSet 11751329_s_at) / Fold change (Aza/veh), VPS36 (ProbeSet 11739960_a_at) / Fold change (ACY-1035/veh), VPS36 (ProbeSet 11739960_a_at) / RFU SYPL1 (11715823_x_at) / Fold change /veh SYPL1 (11715823_x_at) / RFU IGFBP7 (11715501_s_at) / Fold change /veh IGFBP7 (11715501_s_at) / RFU REEP3 (11722064_at) / Fold change /veh REEP3 (11722064_at) / RFU IGLL1 (11728026_x_at) / Fold change /veh IGLL1 (11728026_x_at): dose or concentration left out as unconfirmed
# Settings: MV-4-11 cells, 48 hours
structure (smiles),measurement,value
Nc1ccc(-c2cccs2)cc1NC(=O)c1ccc2c(c1)cc(C1CC1)n2CCN1CCOCC1 [ACY-1035],Fold change /veh SNX32 (11753110_a_at),1.17
